# In patent US20060178293A1, “Cardiotonic polypeptides” (priority 2003, published 2006):
# System: isolated cardiomyocytes derived from adult rats
# Conditions: electrically stimulated; 0.35 μg/ml (FIG. 5)
smiles,measurement,value
NCCc1ccc(O)c(O)c1 [inotropin],"mechanical contractility (cell length changes), optically monitored",obvious increase in contractility
